pEC50: −log10 of the molar value. Where two headings read alike, the source gives them in different places. Non-standard residues stand in square brackets, D forms with d. Residues, ends and D or L forms follow the SMILES beside them. *: point of attachment. 5FAM = O=C1OC2(c3ccc(O)cc3Oc3cc(O)ccc32)c2ccc(C(=O)*)cc21; pT = C[C@@H](OP(=O)(O)O)[C@H](N)C(=O)O; pS = N[C@@H](COP(=O)(O)O)C(=O)O
How the values were obtained:
Assay type in all cases: binding
[1] = molecular target: T1, 14-3-3σ(C42) (Homo sapiens, UniProt P31947, C38N/N42C); assay: Fluorescence anisotropy titration of 14-3-3σ(C42) to fluorescein-labeled partner peptides
T1 construct: with a truncated C-terminus after T231; His6 (N, cleaved yes); made in house; host or cells: E. coli NiCo21 (DE3), pPROEX HTb
T1 sequence (P31947 1-231 C38N/N42C): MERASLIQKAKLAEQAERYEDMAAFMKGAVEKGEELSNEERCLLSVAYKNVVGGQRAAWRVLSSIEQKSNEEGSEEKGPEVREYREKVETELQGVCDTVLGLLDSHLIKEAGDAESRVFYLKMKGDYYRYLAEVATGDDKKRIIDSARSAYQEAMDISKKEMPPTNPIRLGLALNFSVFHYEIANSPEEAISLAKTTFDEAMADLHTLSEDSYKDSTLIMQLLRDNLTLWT
Description: The 14-3-3/ER stabilizer FC (Fusicoccin) inhibits estradiol dependent signaling. FC (a natural product) inhibits dimerization of E2/ER and tamoxifen/ER. FC also blocks DNA binding and transcription (482) (PNAS May 28, 2013 110 (22) 8894-8899). Disulfide trapping for stabilizers of 14-3-3σ/ERα-pp (15-mer phosphopeptide representing the 14-3-3σ binding motif of ERα), was measured (J. Am. Chem. Soc. 2019, 141, 8, 3524-3531, FIG. 1b). Different cysteine residues yield different 14-3-3/client stabilizing chemical moieties. At each tethering residue, bound chemical moieties can be competitive with peptide, noncompetitive, or cooperative (J. Am. Chem. Soc. 2019, 141, 8, 3524-3531, FIG. 1c). […] 14-3-3σ (C42) expected mass: 26509 Da, βME capped mass: 26585 Da, protein-disulfide conjugate mass: 26795 Da. LC/MS dose response curves showing percentage of protein conjugate formation for titrations of disulfides to 14-3-3σ (C42) apo and bound to ERα-pp, were measured. […] LC/MS dose response curves showing percentage of protein conjugate formation for titrations of disulfides to 14-3-3σ (C42) apo and bound to ERα-pp, were measured. […] Dose-response curve of Fragment 1, which induces ERα binding, were measured (J. Am. Chem. Soc. 2019, 141, 8, 3524-3531, FIG. 2a-2b, supporting information). Small molecules stabilize 14-3-3σ/Erα-pp binding. […] Schematic of experimental design and Plot of anisotropy (mean+SD) for titrations of Frag001, Frag002, FC-A (natural product fusicoccane-A), or DMSO control to fluorescein-Erα-pp and 1 μM 14-3-3σ (C42) (J. Am. Chem. Soc. 2019, 141, 8, 3524-3531, FIG. 3a-3b). Dose-response curves were obtained by MS by analyzing % tethering for titrations of Fragment 2 to 14-3-3σ apo (− peptide;) or bound to different interaction partner-derived peptide motifs; ERα-pp ( ), TASK3-pp ( ), ExoS ( ) or TAZ-pp ( ), starting from 1 mM (J. Am. Chem. Soc. 2019, 141, 8, 3524-3531, FIG. 4b). LC/MS screening data of hits for 14-3-3σ (C42)+/−ERα-pp was collected. The deconvoluted LC/MS spectra of disulfide fragments bound to 14-3-3σ (C42) alone or in complex with ERα-pp were determined with 14-3-3σ (C42) expected mass: 26509 Da, βME capped mass: 26585 Da, protein-disulfide conjugate mass: between 26752-26919 Da. Fragments bound preferentially in the presence of ERα-pp: 959996 (1), 916971, and 917137 were termed ‘cooperative’. […] Fluorescence anisotropy (r) of fluorescein-ERα-pp versus concentration of 6 or FC-A binding to 14-3-3σ(C42) or 14-3-3σ(C45) was tested. […]
Fluorescence Anisotropy. […] Fluorescence anisotropy measurements were performed directly and after overnight incubation at room-temperature, using a Tecan Infinite F500 plate reader (filter set λex: 485±20 nm, λem: 535±25 nm). […]

[2] = molecular target: T2, Pin1_72/14-3-3 complex (Homo sapiens, UniProt P61981); assay: Fluorescence anisotropy compound titration, Pin1_72/14-3-3 (CC50)
T2 construct: the full length 14-3-3γ was dialysis against 25 mM HEPES pH 7.5; made in house; host or cells: E. coli BL21(DE3), pPROEX HTb
T2 sequence (P61981 1-247): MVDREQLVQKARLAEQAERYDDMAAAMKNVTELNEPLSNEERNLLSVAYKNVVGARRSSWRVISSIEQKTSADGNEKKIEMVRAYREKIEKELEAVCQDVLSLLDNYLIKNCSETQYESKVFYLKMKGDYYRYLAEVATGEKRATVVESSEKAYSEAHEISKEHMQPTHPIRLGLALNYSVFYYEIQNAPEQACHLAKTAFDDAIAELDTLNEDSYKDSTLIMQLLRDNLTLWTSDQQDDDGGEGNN
Description: Site-Directed Shift base fragment Screening. […] As measure of activity the inflection point of the curve was determined, representing the half-maximum complex formation (CC50).
(§1) Fluorescence Anisotropy (FA) Assays.

[3] = molecular target: T3, Pin1_72/14-3-3γ (Homo sapiens, UniProt P61981+Q13526); assay: Fluorescence anisotropy protein titration, Pin1_72/14-3-3γ at constant compound; settings: based on internal DMSO control and 100 μM fragment
T3 construct: the full length 14-3-3γ was dialysis against 25 mM HEPES pH 7.5; made in house; host or cells: E. coli BL21(DE3), pPROEX HTb
Description: Inspired by the binding poses of 3 and 9 we combined their structural features to improve stabilization. […] In case of complex stabilization, a left shift of apparent KD values is expected, here described as stabilization factors (SF).
as §1

[4] = molecular target: T4, 14-3-3/Pin1_72 complex (Homo sapiens, UniProt P61981); assay: Cooperativity analysis, 14-3-3 titrations at varied constant fragment concentration
T4 construct: the full length 14-3-3γ was dialysis against 25 mM HEPES pH 7.5; made in house; host or cells: E. coli BL21(DE3), pPROEX HTb
Description: Cooperativity in ternary complex formation. In contrast to PPI inhibition, where affinity to one of the protein pockets is the driving force for drug development, design of molecular glues is driven by cooperative ternary complex formation. Both CC50 and SF values are concentration dependent values and might differ based on assay design. […] Cooperative complex formation is often accompanied by structural changes of the interface of a complex which translates to increased stability of the ternary com-plex. In order to assess cooperativity of the ternary complex, fragments 13, 23, 27 and 28 were selected for cooper-activity analysis. The α-factor of the fragments were determined using 14-3-3 titrations in the presence of varied, but constant concentration of fragment in a dose-dependent manner. […] Further, the interval of change in stabilization further describes the systems cooperative behaviour.
However, at higher concentration regimes significant assay interference was observed, probably due to compound aggregation. Fragments 23, 27 and 28 all reached saturation or approached saturation enabling accurate determination of α-factor. […] KD remains constant also at higher concentrations of FC-A, indicating non-specific effects.

[5] = molecular target: T5, 14-3-3σ(C42)/ERα-pp complex (Homo sapiens, UniProt P31947, C38N/N42C); assay: Disulfide tethering primary screen, intact protein LC/MS, protein-peptide complex
T5 construct: with a truncated C-terminus after T231; His6 (N, cleaved yes); made in house; host or cells: E. coli NiCo21 (DE3), pPROEX HTb
Description: Apo-14-3-3σ or the 14-3-3σ/ERα-pp complex was screened against a 1600-member disulfide library under mildly reducing conditions (100 μM betamercaptoethanol; βME). Conjugate formation for each individual reaction was analyzed by intact protein MS. Three peaks observed in mass spectra corresponded to apo, βME-capped, and fragment-conjugated 14-3-3σ. The ‘percent tethering’, defined as the intensity of the fragment-specific conjugate protein peak divided by the sum of the intensities for all protein peaks, was calculated for each individual experiment using an automated pipeline. (492)
Disulfide Tethering screening and data processing. The primary screening was performed by incubating the target with individual compounds in a 384-well plate format. A custom library of 1600 disulfide-containing fragments of the UCSF Small Molecule Discovery Center (SMDC), synthesized as previously reported, was available as 50 mM stock solutions in DMSO. (496, 497) For screening, 14-3-3σ wild-type and Cys-mutants were diluted to 100 nM in buffer (10 mM Tris, 100 μM betamercaptoethanol (βME), pH 8.0) and plated in 384-well plates (15 μL/well). 30 nL of each fragment was pinned from the library master plates into the protein samples using a Biomek FX (Beckman) to give a final concentration of 100 μM. The duplicate experiments additionally contained 200 nM ERα-pp. The reaction mixtures were incubated for 3 hours at RT before being subjected to LC/MS (I-class Acquity UPLC/Xevo G2-XS Quadrupole Time of Flight mass spectrometer, Waters). Data collection and automated processing followed a custom workflow, as previously described. (492) All compounds described in the text were from the same lot as the original screening material.

In the case of `CC[C@H](C)[C@H](NC(=O)[C@H](Cc1ccc(O)cc1)NC(=O)[C@H](Cc1ccc(O)cc1)NC(=O)[C@H](CCCCN)NC(C)=O)C(=O)N[C@H](C(=O)NCC(=O)N[C@@H](CCC(=O)O)C(=O)N[C@@H](C)C(=O)N[C@@H](CCC(=O)O)C(=O)NCC(=O)N[C@@H](Cc1ccccc1)C(=O)N1CCC[C@H]1C(=O)N[C@@H](C)C(=O)N[C@H](C(=O)N[C@H](C(=O)O)C(C)C)[C@@H](C)OP(=O)(O)O)[C@@H](C)O` [ERα-pp] (Ac-KYYITGEAEGFPA[pT]V-OH), the pEC50 [1] was 6.52.

Compound `CC(C)C[C@H](NC(=O)CNC(=O)[C@H](CCC(N)=O)NC(=O)CNC(=O)[C@H](Cc1c[nH]cn1)NC(=O)CNC(=O)[C@H](CO)NC(=O)c1ccc2c(c1)C(=O)OC21c2ccc(O)cc2Oc2cc(O)ccc21)C(=O)N[C@@H](CC(C)C)C(=O)N[C@@H](CC(=O)O)C(=O)N[C@@H](C)C(=O)N[C@@H](CC(C)C)C(=O)N[C@@H](CC(=O)O)C(=O)N[C@@H](CC(C)C)C(=O)N[C@@H](C)C(=O)N[C@@H](CO)C(N)=O` [ExoS] has a pEC50 [1] of 4.95.

With `O=Cc1ccc(-n2ccnc2)c(Cl)c1` [L2] the “activity in FA assay” value [2] was “significant complex formation” and the “SF (fold stabilization)” value [3] was 0.8.

With `CC(C)[C@H](NC(=O)[C@H](COP(=O)(O)O)NC(=O)[C@H](CCCCN)NC(=O)[C@H](CCCNC(=N)N)NC(=O)[C@H](CCCNC(=N)N)NC(=O)c1ccc2c(c1)C(=O)OC21c2ccc(O)cc2Oc2cc(O)ccc21)C(=O)O` [TASK3-pp, KRRKpS^373V-OH] (5FAM-RRK[pS]V-OH) the pEC50 ([1]; fluorescein-labeled peptide) was 6.70.

Work on `CC(C)C[C@H](NC(=O)[C@H](CCC(N)=O)NC(=O)[C@H](CC(C)C)NC(=O)[C@H](CO)NC(=O)[C@H](C)NC(=O)[C@@H]1CCCN1C(=O)[C@H](CO)NC(=O)[C@H](COP(=O)(O)O)NC(=O)[C@H](Cc1c[nH]cn1)NC(=O)[C@H](CO)NC(=O)[C@H](CCCNC(=N)N)NC(=O)c1ccc2c(c1)C(=O)OC21c2ccc(O)cc2Oc2cc(O)ccc21)C(=O)NCC(=O)N[C@H](C(N)=O)[C@@H](C)O` [TAZ-pp, RSHpS^89SPASLQ] (5FAM-RSH[pS]SPASLQLGT-NH2) yielded a pEC50 ([1]; fluorescein-labeled peptide) of 5.66.

For `O=Cc1ccc(-n2ccnc2-c2ccccc2Br)cc1Br` [compound 23, 2-bromo-4-(2-(2-bromophenyl)-1H-imidazol-1-yl)benzaldehyde], the “SF (fold stabilization)” value [3] was 18.9 and the “cooperativity factor (α-factor)” value [4] was “approximately 60”.

`O=Cc1ccc(-n2ccnc2-c2ccc(O)cc2)cc1Br` [compound 25, 2-bromo-4-(2-(4-hydroxyphenyl)-1H-imidazol-1-yl)benzaldehyde] was tested, and the “activity in FA assay” value [2] was “limited effect”.

For `O=Cc1ccc(-n2ccnc2-c2cccnc2)cc1Br` [compound 26, 2-bromo-4-(2-(pyridin-3-yl)-1H-imidazol-1-yl)benzaldehyde], the “activity in FA assay” value [2] was “limited effect” and the “SF (fold stabilization)” value [3] was 2.27.

For `NCCSSCCCC(=O)NCC(c1ccccc1)c1ccccc1` [compound 916971], the “hit category (binding in presence vs absence of ERα-pp)” value [5] was “cooperative”.

With `CN(C)CCSSCCNC(=O)c1ccccc1Sc1ccccc1C#N` [compound 917137] the “hit category (binding in presence vs absence of ERα-pp)” value [5] was “cooperative”.

For `CN(C)CCSSCCNC(=O)C1CCN(C(=O)c2ccccc2NC(=O)c2ccccc2)CC1` [compound 917805], the “hit category (binding in presence vs absence of ERα-pp)” value [5] was “neutral”.

`CN(C)CCSSCCn1cc(CN2C(=O)C(=O)c3ccccc32)nn1` [compound 957838] was tested, and the “hit category (binding in presence vs absence of ERα-pp)” value [5] was “neutral”.

Source: patent US20230142739A1, “PROTEIN-PROTEIN INTERACTION STABILIZERS” (The Regents of the University of California, priority 2020, published 2023)
